From PMC3059997, “Exploring Indirect Sources of Human Exposure to Perfluoroalkyl Carboxylates (PFCAs): Evaluating Uptake, Elimination, and Biotransformation of Polyfluoroalkyl Phosphate Esters (PAPs) in the Rat” (Environmental Health Perspectives, 2010)

Legend:
[1] = Uptake experiment: diPAP mixture by oral gavage, analytes in whole blood; format: in vivo, Sprague-Dawley rats; details: male, Sprague-Dawley, rat, in vivo, po, diPAP gavage dose, whole blood
Method: (§1) This research was conducted under an animal use protocol approved by the University of Toronto Animal Care Committee. All animals were treated humanely and with regard for alleviation of suffering. Sprague-Dawley rats were obtained from Charles River Laboratories Inc. (Sherbrooke, QC, Canada) The animals were singly housed and exposed to a 12/12 hr light/dark cycle with food and water available ad libitum. Blood samples were collected from the saphenous vein using Microvette CB 300 vials (Sarstedt AG & Co., Montreal, QC, Canada) embedded with lithium-heparin as an anticoagulant. Whole-blood samples were stored at −20°C, and urine and feces samples were stored at 4°C.
(§2) Two groups of four 8-week-old male rats were administered a mixture of 4:2, 6:2, 8:2, and 10:2 diPAP or monoPAP, respectively, each at about 50 mg/kg, at 4 mL/kg by oral gavage without prior fasting. […] Two control male rats were administered clean vehicle at 4 mL/kg [for details, see Supplemental Material, Table 3 (doi:10.1289/ehp.1002409)].
(§3) Blood was collected from all animals 3 days before dosing to establish background contamination. For the uptake experiment, blood samples were collected at 1, 3, and 6 hr and 1, 2, 4, 7, 10, 14, 18, and 22 days after dosing. For the elimination experiment, blood samples were collected at 2, 4, and 6 hr and 1, 2, 4, 8, 11, 15, and 18 days after dosing. On the final sampling day, the animals were sacrificed by carbon dioxide asphyxiation, and about 10 mL of blood was collected by cardiac puncture into a BD Vacutainer embedded with lithium-heparin.
(§4) The compounds of interest fall into four categories: a) the diPAP and monoPAP parent compounds, b) the saturated and unsaturated fluorotelomer carboxylic acid (FTCA and FTUCA) metabolic intermediates, c) the FTOH-sulfate and FTOH-glucuronide phase II metabolites, and d) the final PFCA biotransformation products [see Supplemental Material, Table 1 (doi:10.1289/ehp.1002409)]. We analyzed these compounds in whole blood, urine, and feces samples. For full analytical details, see Supplemental Material. All PFCAs, FTCAs, FTUCAs, and phase II metabolites were quantified by internal calibration. Because internal standards were not available, monoPAPs and diPAPs were quantified by standard addition. We performed spike and recovery experments to validate the extraction and quantification techniques used (for details, see Supplemental Material).
(§5) Analyte and matrix specific limits of detection (LODs) and limits of quantification (LOQs) are provided in Supplemental Material (doi:10.1289/ehp.1002409). For the purpose of calculating means, values < LOD were assigned a value of zero, and values < LOQ but > LOD were used unaltered but are indicated by asterisks in figures and parentheses in tables. Values are presented using the arithmetic mean ± SE. Full data sets are available in Supplemental Material. […]

[2] = Elimination experiment: diPAP mixture by IV injection, analytes in whole blood; format: in vivo, Sprague-Dawley rats; details: male, Sprague-Dawley, rat, in vivo, diPAP IV dose, whole blood
Method: as §1
(§6) Two groups of four 8-week-old male rats were administered a mixture of 4:2, 6:2, 8:2, and 10:2 diPAP or monoPAP, respectively, each at about 15 mg/kg, at 2 mL/kg by intravenous (IV) injection into the lateral tail vein. The dosing vehicle was 50:50 propylene glycol:water. Two control male rats were administered clean vehicle at 2 mL/kg [for details see Supplemental Material, Table 3 (doi:10.1289/ehp.1002409)].
as §3, §4, §5

[3] = Uptake experiment: monoPAP mixture by oral gavage, analytes in whole blood; format: in vivo, Sprague-Dawley rats; details: male, Sprague-Dawley, rat, in vivo, po, monoPAP gavage dose
Method: as §1, §2, §3, §4
(§7) Analyte and matrix specific limits of detection (LODs) and limits of quantification (LOQs) are provided in Supplemental Material (doi:10.1289/ehp.1002409). For the purpose of calculating means, values < LOD were assigned a value of zero, and values < LOQ but > LOD were used unaltered but are indicated by asterisks in figures and parentheses in tables. Values are presented using the arithmetic mean ± SE. Full data sets are available in Supplemental Material.

[4] = Elimination experiment: monoPAP mixture by IV injection, analytes in whole blood; format: in vivo, Sprague-Dawley rats; details: male, Sprague-Dawley, rat, in vivo, monoPAP IV dose
Method: as §1, §6, §3, §4, §7

[5] = design: method as in Olsen et al. 2007; details: ref Olsen et al. 2007; cited from earlier work

O=C(O)C(F)(F)C(F)(F)C(F)(F)C(F)(F)C(F)(F)C(F)(F)C(F)(F)F [PFOA, perfluorooctanoic acid]
Cmax ([1]; 50 mg/kg, mean ± SE, values in parentheses < LOQ but > LOD, read-out: Cmax): 7.2 ± 1.7 ng/g
Tmax ([1]; 50 mg/kg, read-out: Tmax (converted)): 96 h
Half-life ([1]; about 50 mg/kg each, mean ± SE, read-out: Half-life (converted)): 264 h
Cmax ([2]; 15 mg/kg, mean ± SE, values in parentheses < LOQ but > LOD, read-out: Cmax): 9.3 ± 2.4 ng/g
Tmax ([2]; 15 mg/kg, read-out: Tmax (converted)): 48 h
Half-life ([2]; about 15 mg/kg each, mean ± SE, read-out: Half-life (converted)): 552 h
Tmax ([3]; 50 mg/kg, whole blood, read-out: Tmax (converted)): 24 h
Cmax ([3]; 50 mg/kg, whole blood, values in parentheses < LOQ but > LOD, read-out: Cmax): 28 ± 8 ng/g
Half-life ([3]; about 50 mg/kg each, PFCA product in whole blood, read-out: Half-life (converted)): 240 h
Cmax ([4]; 15 mg/kg, whole blood, read-out: Cmax): 8.5 ± 1.4 ng/g
Tmax ([4]; 15 mg/kg, whole blood, read-out: Tmax (converted)): 96 h
Half-life ([4]; about 15 mg/kg each, PFCA product in whole blood, read-out: Half-life (converted)): 288 h
Human serum half-life (arithmetic) [5]: 4.5 years
